Experimental data: US6337346B1 (University of North Carolina at Chapel Hill, priority 1998, dated 2002)
≈ marks a conversion by molar mass, not a printed value. Like-named read-outs stand apart in the source and are kept apart here.

Key:
KB cells = conditions: cited from earlier work; for ED50: KB cells, background, numbering of Examples 1-13
human tumor cell lines [1] = assay: NCI in vitro screen, mean over all cell lines tested; conditions: for GI50: Homo sapiens, read-out: Cytotoxicity log GI50, Mean Value (converted); for Cytotoxicity log GI50, Mean Value: Mean value over all cell lines tested (58 human tumor cell lines), Table 2 (numbering of Examples 1-13)
Source text: (§1) (Activity is defined as log GI50<−4 where GI50 is the molar concentration causing 50% cell growth inhibition).

SK-MEL-28 = assay: NCI in vitro disease-oriented tumor cells screen; assay type: cell-based, human; conditions: Melanoma SK-MEL-28, Table 2, average of at least two testings; for GI50: Homo sapiens, read-out: Cytotoxicity log GI50 (converted)
Source text: as §1

MALME-3M = assay: NCI in vitro disease-oriented tumor cells screen; assay type: cell-based, human; conditions: Melanoma MALME-3M, Table 2, average of at least two testings; for GI50: Homo sapiens, read-out: Cytotoxicity log GI50 (converted)
Source text: as §1

NCI-H23 = assay: NCI in vitro disease-oriented tumor cells screen; assay type: cell-based, human; conditions: Non-Small Cell Lung Cancer NCI-H23, Table 2 (numbering of Examples 1-13), average of at least two testings; for GI50: Homo sapiens, read-out: Cytotoxicity log GI50 (converted)
Source text: as §1

HS 578T = assay: NCI in vitro disease-oriented tumor cells screen; assay type: cell-based, human; conditions: Breast Cancer HS 578T, Table 2, average of at least two testings; for GI50: Homo sapiens, read-out: Cytotoxicity log GI50 (converted)
Source text: as §1

OVCAR-3 = assay: NCI in vitro disease-oriented tumor cells screen; assay type: cell-based, human; conditions: Ovarian Cancer OVCAR-3, Table 2 (numbering of Examples 1-13), average of at least two testings; for GI50: Homo sapiens, read-out: Cytotoxicity log GI50 (converted)
Source text: as §1

UACC-62 = assay: NCI in vitro disease-oriented tumor cells screen; assay type: cell-based, human; conditions: Melanoma UACC-62, Table 2, average of at least two testings; for GI50: Homo sapiens, read-out: Cytotoxicity log GI50 (converted)
Source text: as §1

LOX IMVI = assay: NCI in vitro disease-oriented tumor cells screen; assay type: cell-based, human; conditions: Melanoma LOX IMVI, Table 2 (numbering of Examples 1-13), average of at least two testings; for GI50: Homo sapiens, read-out: Cytotoxicity log GI50 (converted)
Source text: as §1

BT-549 = assay: NCI in vitro disease-oriented tumor cells screen; assay type: cell-based, human; conditions: Breast Cancer BT-549, Table 2, average of at least two testings; for GI50: Homo sapiens, read-out: Cytotoxicity log GI50 (converted)
Source text: as §1

MDA-MB-435 = assay: NCI in vitro disease-oriented tumor cells screen; assay type: cell-based, human; conditions: Breast Cancer MDA-MB-435, Table 2 (numbering of Examples 1-13), average of at least two testings; for GI50: Homo sapiens, read-out: Cytotoxicity log GI50 (converted)
Source text: as §1

MDA-N = assay: NCI in vitro disease-oriented tumor cells screen; assay type: cell-based, human; conditions: Breast Cancer MDA-N, Table 2 (numbering of Examples 1-13), average of at least two testings; for GI50: Homo sapiens, read-out: Cytotoxicity log GI50 (converted)
Source text: as §1

SK-MEL-5 = assay: NCI in vitro disease-oriented tumor cells screen; assay type: cell-based, human; conditions: Melanoma SK-MEL-5, Table 2 (numbering of Examples 1-13), average of at least two testings; for GI50: Homo sapiens, read-out: Cytotoxicity log GI50 (converted)
Source text: as §1

SK-MEL-2 = assay: NCI in vitro disease-oriented tumor cells screen; assay type: cell-based, human; conditions: Melanoma SK-MEL-2, Table 2, average of at least two testings; for GI50: Homo sapiens, read-out: Cytotoxicity log GI50 (converted)
Source text: as §1

OVCAR-8 = assay: NCI in vitro disease-oriented tumor cells screen; assay type: cell-based, human; conditions: Ovarian Cancer OVCAR-8, Table 2, average of at least two testings; for GI50: Homo sapiens, read-out: Cytotoxicity log GI50 (converted)
Source text: as §1

M14 = assay: NCI in vitro disease-oriented tumor cells screen; assay type: cell-based, human; conditions: Melanoma M14, Table 2, average of at least two testings; for GI50: Homo sapiens, read-out: Cytotoxicity log GI50 (converted)
Source text: as §1

UACC-257 = assay: NCI in vitro disease-oriented tumor cells screen; assay type: cell-based, human; conditions: Melanoma UACC-257, Table 2, average of at least two testings; for GI50: Homo sapiens, read-out: Cytotoxicity log GI50 (converted)
Source text: as §1

human tumor cell lines [2] = system: human tumor cell lines
Source text: as §1

NCI-H522 = assay: NCI in vitro disease-oriented tumor cells screen; assay type: cell-based, human; conditions: Non-Small Cell Lung Cancer NCI-H522, Table 2, average of at least two testings; for GI50: Homo sapiens, read-out: Cytotoxicity log GI50 (converted)
Source text: as §1

HL-60(TB) = assay: NCI in vitro disease-oriented tumor cells screen; assay type: cell-based, human; conditions: Leukemia HL-60(TB), Table 2, average of at least two testings; for GI50: Homo sapiens, read-out: Cytotoxicity log GI50 (converted)
Source text: as §1

| SMILES | GI50 (human tumor cell lines [1]) | GI50 (SK-MEL-28) | GI50 (MALME-3M) | GI50 (NCI-H23) | GI50 (HS 578T) | GI50 (OVCAR-3) | GI50 (UACC-62) | GI50 (LOX IMVI) | GI50 (BT-549) | GI50 (MDA-MB-435) | GI50 (MDA-N) | GI50 (SK-MEL-5) | GI50 (SK-MEL-2) | GI50 (OVCAR-8) | GI50 (M14) | GI50 (UACC-257) | GI50 (NCI-H522) | GI50 (HL-60(TB)) | overall cytotoxicity / potency (in words) (human tumor cell lines [2]) | other results |
| --- | --- | --- | --- | --- | --- | --- | --- | --- | --- | --- | --- | --- | --- | --- | --- | --- | --- | --- | --- | --- |
| O=C1c2c(O)ccc(O)c2C(=O)c2c(NCCNCCO)ccc(NCCNCCO)c21 [Compound 1, mitoxantrone] | – | – | – | – | – | – | – | – | – | – | – | – | – | – | – | – | – | – | – | ED50 (KB cells): 1.0 µg/mL (≈ 2.25 µM) |
| CC(=O)OC(C)c1cc2c(s1)C(=O)c1ccsc1C2=O (stereo not drawn) [Compound 11, 2-(1′-Acetoxyethyl)-4,8-dihydrobenzo[1,2-b:4,5-b′]dithiophene-4,8-dione] | 39.8 nM | 19.1 nM | < 10 nM | 11.2 nM | 155 nM | < 10 nM | 17 nM | < 10 nM | 45.7 nM | < 10 nM | < 10 nM | 13.5 nM | 26.3 nM | 36.3 nM | 12.9 nM | 25.1 nM | 148 nM | < 10 nM | – | Cytotoxicity log GI50, Mean Value (human tumor cell lines [2]; human): −7.40 M |
| CC(=O)c1cc2c(s1)C(=O)c1sc(C(C)=O)cc1C2=O [Compound 23] | – | – | – | – | – | – | – | – | – | – | – | – | – | – | – | – | – | – | – | Cytotoxicity log GI50, Mean Value (human tumor cell lines [1]): −6.47 M; Cytotoxicity log GI50 (SK-MEL-28): −6.69 M; Cytotoxicity log GI50 (MALME-3M): −6.65 M; Cytotoxicity log GI50 (NCI-H23): −6.54 M; Cytotoxicity log GI50 (HS 578T): −6.55 M; Cytotoxicity log GI50 (OVCAR-3): −7.53 M; Cytotoxicity log GI50 (UACC-62): −6.63 M; Cytotoxicity log GI50 (LOX IMVI): −7.65 M; Cytotoxicity log GI50 (BT-549): −6.04 M; Cytotoxicity log GI50 (MDA-MB-435): −6.64 M; Cytotoxicity log GI50 (MDA-N): −6.71 M; Cytotoxicity log GI50 (SK-MEL-5): −6.50 M; Cytotoxicity log GI50 (SK-MEL-2): −6.79 M; Cytotoxicity log GI50 (OVCAR-8): −6.64 M; Cytotoxicity log GI50 (M14): −6.36 M; Cytotoxicity log GI50 (UACC-257): −6.78 M; Cytotoxicity log GI50 (NCI-H522): −6.42 M |
| CC(=O)c1cc2c(o1)C(=O)c1ccccc1C2=O [Compound 2, 2-acetyl-4H, 9H-naphtho[2,3-b]furan-4,9-dione] | – | – | – | – | – | – | – | – | – | – | – | – | – | – | – | – | – | – | – | EC50 (KB cells; KB cell culture assay, numbering of Examples 14-16, read-out: ED50 (the source's name)): 4200 nM; ED50 (KB cells): 2.0 µg/mL (≈ 8.33 µM) |
| CC(=O)OC(C)c1cc2c(s1)C(=O)c1sccc1C2=O (stereo not drawn) [Compound 21, 2-(1′-Acetoxyethyl)-4,8-dihydrobenzo[1,2-b:5,4-b′]dithiophene-4,8-dione] | 794 nM | 646 nM | 120 nM | 219 nM | 513 nM | 490 nM | 1380 nM | 209 nM | 282 nM | 182 nM | 19.1 nM | 107 nM | 417 nM | 1410 nM | 162 nM | 214 nM | 871 nM | 1740 nM | among the least active | melting point: 165 to 166 °C |
| CC(O)c1cc2c(s1)C(=O)c1sc(C(C)O)cc1C2=O (stereo not drawn) [Compound 24] | – | – | – | – | – | – | – | – | – | – | – | – | – | – | – | – | – | – | – | Cytotoxicity log GI50, Mean Value (human tumor cell lines [1]): −6.32 M; Cytotoxicity log GI50 (SK-MEL-28): −6.63 M; Cytotoxicity log GI50 (MALME-3M): −6.82 M; Cytotoxicity log GI50 (NCI-H23): −6.72 M; Cytotoxicity log GI50 (HS 578T): −6.50 M; Cytotoxicity log GI50 (OVCAR-3): −6.44 M; Cytotoxicity log GI50 (UACC-62): −6.61 M; Cytotoxicity log GI50 (LOX IMVI): −6.92 M; Cytotoxicity log GI50 (BT-549): −6.71 M; Cytotoxicity log GI50 (MDA-MB-435): −6.80 M; Cytotoxicity log GI50 (MDA-N): −6.83 M; Cytotoxicity log GI50 (SK-MEL-5): −6.85 M; Cytotoxicity log GI50 (SK-MEL-2): −6.69 M; Cytotoxicity log GI50 (OVCAR-8): −6.58 M; Cytotoxicity log GI50 (M14): −6.81 M; Cytotoxicity log GI50 (UACC-257): −6.79 M; Cytotoxicity log GI50 (NCI-H522): −6.40 M; Cytotoxicity log GI50 (HL-60(TB)): −6.36 M |
| CC(O)c1cc2c(s1)C(=O)c1c(C(C)O)csc1C2=O (stereo not drawn) [Compound 14, 2,7-Bis(1′-hydroxyethyl)-4,8-dihydrobenzo [1,2-b:4,5-b′]dithiophene-4,8-dione] | 148 nM | 186 nM | 27.5 nM | 33.9 nM | 316 nM | 11.7 nM | 32.4 nM | 55 nM | 162 nM | 17.8 nM | 20.9 nM | 12.6 nM | 112 nM | 219 nM | 57.5 nM | 61.7 nM | 302 nM | 11.2 nM | overall cytotoxicity comparable to the monosubstituted compounds | – |
| O=C1c2ccccc2C(=O)c2sccc21 [Compound 4, naphtho[2,3-b]thiophene-4,9-dione] | – | – | – | – | – | – | – | – | – | – | – | – | – | – | – | – | – | – | – | ED50 (KB cells): 1.4 µg/mL (≈ 6.53 µM) |
| CC(=O)c1cc2c(s1)C(=O)c1c(C(C)=O)csc1C2=O [Compound 13, 2,7-Diacetyl-4,8-dihydrobenzo[1,2-b:4,5-b′]dithiophene-4,8-dione] | 1170 nM | 1780 nM | 1320 nM | 1320 nM | 2400 nM | 229 nM | 1950 nM | 1050 nM | 1740 nM | 178 nM | 174 nM | 1200 nM | 1740 nM | 1450 nM | 1510 nM | 562 nM | 525 nM | 52.5 nM | less active in all cell lines | – |
| CC(=O)c1cc2c(s1)C(=O)c1sccc1C2=O [Compound 19, 2-Acetyl-4,8-dihydrobenzo[1,2-b:5,4-b′]dithiophene-4,8-dione] | 46.8 nM | < 10 nM | 16.2 nM | 18.2 nM | 36.3 nM | < 10 nM | 17 nM | < 10 nM | 17.8 nM | < 10 nM | < 10 nM | < 10 nM | 33.1 nM | 30.9 nM | 17.4 nM | 13.8 nM | 17.4 nM | – | – | – |
| CC(O)c1cc2c(s1)C(=O)c1sccc1C2=O (stereo not drawn) [Compound 20, 2-(1′-Hydroxyethyl)-4,8-dihydrobenzo[1,2-b:5,4-b′]dithiophene-4,8-dione] | 135 nM | 38.9 nM | 19.1 nM | 15.5 nM | 57.5 nM | 117 nM | 22.4 nM | 24 nM | 34.7 nM | 16.2 nM | 18.6 nM | 13.5 nM | 30.9 nM | 162 nM | 14.8 nM | 18.2 nM | 123 nM | 69.2 nM | excellent overall cytotoxicity | melting point: 170 to 172 °C |
